In PubChem BioAssay (NCI):
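These data come from cells grown in 96-well plates and exposed to compound for 48 hours at five concentrations. Abbreviation: GI50, concentration required for 50% inhibition of growth. TGI: total growth inhibition.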

Key:
Experiment in all cases: NCI-60 cell line screen, 48 h
NCI-H23 lung = system: NCI-H23 lung
SK-OV-3 ovarian = system: SK-OV-3 ovarian
CCRF-CEM leukemia = system: CCRF-CEM leukemia
KM12 colon = system: KM12 colon
A498 renal = system: A498 renal
PC-3 prostate = system: PC-3 prostate
MDA-MB-435 = system: MDA-MB-435
ACHN renal = system: ACHN renal
MOLT-4 leukemia = system: MOLT-4 leukemia
EKVX NSCLC = system: EKVX NSCLC

| SMILES | GI50 (NCI-H23 lung) [nM] | TGI (NCI-H23 lung) [nM] | GI50 (SK-OV-3 ovarian) [nM] | TGI (SK-OV-3 ovarian) [nM] | GI50 (CCRF-CEM leukemia) [nM] | TGI (CCRF-CEM leukemia) [nM] | GI50 (KM12 colon) [nM] | TGI (KM12 colon) [nM] | GI50 (A498 renal) [nM] | TGI (A498 renal) [nM] | GI50 (PC-3 prostate) [nM] | TGI (PC-3 prostate) [nM] | GI50 (MDA-MB-435) [nM] | TGI (MDA-MB-435) [nM] | GI50 (ACHN renal) [nM] | TGI (ACHN renal) [nM] | GI50 (MOLT-4 leukemia) [nM] | TGI (MOLT-4 leukemia) [nM] | GI50 (EKVX NSCLC) [nM] | TGI (EKVX NSCLC) [nM] |
| --- | --- | --- | --- | --- | --- | --- | --- | --- | --- | --- | --- | --- | --- | --- | --- | --- | --- | --- | --- | --- |
| CC[C@]1(O)C[C@@H]2CN(CCc3c([nH]c4ccccc34)[C@@](C(=O)OC)(c3cc4c(cc3OC)N(C)[C@H]3[C@@](O)(C(N)=O)[C@H](O)[C@]5(CC)[C@@H]6C[C@@H]6CN6CC[C@]43[C@@H]65)C2)C1 | < 3.33 | > 33300 | < 3.33 | > 33300 | < 3.33 | > 28800 | < 3.33 | > 29800 | 4.66 | 243 | < 3.33 | > 33300 | < 3.33 | < 3.33 | 161 | > 33300 | < 3.33 | > 33300 | 62.4 | > 33300 |
| COc1nc(C)cc2c(=O)n(-c3ccccc3)n(CC(O)CN3CCN(c4ccc(Cl)cc4)CC3)c(=O)c12 (stereo not given) | > 50000 | > 50000 | 22300 | > 50000 | > 50000 | > 50000 | > 50000 | > 50000 | > 50000 | > 50000 | 25900 | > 50000 | > 50000 | > 50000 | 43300 | > 50000 | > 50000 | > 50000 | > 50000 | > 50000 |
| C/C(=C(/c1ccc(O)cc1)c1ccc(Cl)cc1)c1ccccc1 | 625 | 1840 | 1040 | 3760 | 764 | 2870 | 543 | 1220 | 1540 | 5060 | 721 | 2560 | 534 | 1180 | 628 | 1800 | 678 | 2410 | 698 | 2120 |
| Oc1c(CN2CCCC2)cc(CSCc2ccccc2)c2cccnc12 | 1310 | 5120 | 666 | 2820 | 429 | 10200 | 635 | 11900 | 2260 | 8080 | 1550 | 14000 | 1400 | 13600 | 291 | 10200 | 671 | 2740 | 1990 | 11900 |
| CN1c2ccccc2S(=O)(=O)n2c(CCc3ccccc3)nnc21 |  | > 100000 |  | > 100000 |  | > 100000 |  | > 100000 |  | > 100000 |  | > 100000 |  | > 100000 |  | > 100000 |  | > 100000 |  | > 100000 |
| CC(C(=O)O)c1ccc(-c2ccccc2)c(F)c1 (stereo not given) |  | > 100000 |  | > 100000 |  | > 100000 |  | > 100000 |  | > 100000 |  | > 100000 |  | > 100000 |  | > 100000 |  | > 100000 |  | > 100000 |
